In a melting point compilation (Tetko et al.; mined from patent text by program, amines drawn as free bases though some values may be those of a salt):

| melting point | SMILES |
| --- | --- |
| > 410 °C | N#Cc1ccc(-c2cc3c(O)ncnc3[nH]2)cc1 |
| 113 to 115 °C | CC(Oc1ccc(F)cc1)C(=O)O (stereo not given) |
| 85 to 91 °C | CC(C)c1cc(-c2ccc(F)c3ccccc23)nc(NCCNS(C)(=O)=O)n1 |
| 82 to 83 °C | CCCCCCOc1ccc(C(=O)NC2CCC(C)(C)C2)cc1 (stereo not given) |
| 133 to 136 °C | CC(c1ccc(-c2ccccc2)o1)N(O)C(N)=O (stereo not given) |
| 160 to 162 °C | CC(C)(C)OC(=O)NCc1ccc(C(=O)Nc2ccccc2N)cc1 |
| 119 to 123 °C | COC(=O)c1cccc([N+](=O)[O-])c1CS(N)(=O)=O |
| 131 to 136 °C | CCCCCC(=O)Nc1ccn(C2OC(CO)C(O)C2O)c(=O)n1 (stereo not given) |
| 218 to 222 °C | CCOCc1nc2c(c(C)c(C)n3nnnc23)n1CCNS(C)(=O)=O |
| 220 to 222 °C | Cc1ccccc1C(=O)Nc1ccc(C(=O)N2CCCC(OCC(=O)O)c3cc(Cl)ccc32)cn1 (stereo not given) |
| 73 to 75 °C | C[C@H]1[C@H](c2ccccc2)OC(c2cccc(Br)c2)N1C (stereo not given in full) |
| 165 to 167 °C | CCCCNS(=O)(=O)c1ccc2nc3scc(C)n3c(=O)c2c1 |
| 105 to 107 °C | CN(C(=O)c1ccc2c(c1)nc(NC(=O)c1cccs1)n2CCCO)C1CCCCC1 |
| 176 to 177 °C | COc1ccc(C2=NN(c3nc4ccccc4s3)C(=O)[C@H]3CC=CC[C@@H]23)cc1OC (relative stereo) |
| 178 to 181 °C | O=C1C(C(c2ccccc2)c2ccccc2)NC2CCCC3C(C2)C13 (stereo not given) |
| 213 °C | CC(C)n1nc(-c2cnc(N)nc2-c2cccs2)ccc1=O |
| 104 to 105 °C | CC(C)(C)OC(=O)c1cc2ccccc2[nH]1 |
| 154 to 157 °C | COc1cccc2c1cc(C)n2Cc1c(Cl)cccc1Cl |

| melting point | SMILES |
| --- | --- |
| 88 to 90 °C | CCCc1c(OCCCC#CCO)ccc(C(C)=O)c1O |
| 228 °C | COC(=O)c1nc2cc(Cn3ccnc3)ccc2[nH]1 |
| 57 to 59 °C | CCCCCCCCc1ccc(CCC(CCOC(C)=O)(CCOC(C)=O)NC(C)=O)cc1 |
| 148 to 150 °C | Cc1cc(-n2cnn(CCC3CC3)c2=O)sc1C(=O)NCc1cccnc1 |
| 126 to 128 °C | N#CC1=C(Nc2ccc(F)c(F)c2)CCC1 |
| 131 to 133 °C | CCCCc1oc2ccccc2c1C(=O)Nc1ccc2cc(OCC(=O)OC)ccc2c1 |
| 79 °C | O=[N+]([O-])c1ccccc1-c1cc(F)c(F)c(F)c1 |
| 114 to 115 °C | COC(=O)c1cc(OCc2cn(-c3ccc(C(F)(F)F)cn3)nc2C(C)C)nn1C |
| 187 to 188 °C | CCCCCCCCCCNC(=O)C=Cc1cccc(NC(=O)/C=C\C(=O)O)c1 |
| 161 to 164 °C | c1ccc(C2Nc3ccccc3N3CCc4cccc2c43)cc1 (stereo not given) |
| 173 to 174 °C | CCOC1CC2(C)C(CCC3C4CC(O)C(Br)C4(C)CC(N(C)C)C32)CC1O (stereo not given) |
| 95 to 98 °C | CCCCCCCCCCCCCCCCCCOS(=O)(=O)NC(=O)Nc1c(C(C)C)cccc1C(C)C |
| 184 to 185 °C | CCN(CC)CC1CCCN(CCNC(=O)N2c3ccccc3C(=O)Nc3cccnc32)C1 (stereo not given) |
| 83 to 85 °C | CC(C)N(C(=O)CC(C#N)(CCN1CCCCC1)c1ccccc1Cl)C(C)C (stereo not given) |
| 59 to 61 °C | C=Cc1cc(C(C)NC(=O)OC(C)(C)C)cc(F)c1N (stereo not given) |
| 178 to 180 °C | CCC(O)(CC)c1ccc(Cl)c2nc3n(c12)CCCN3c1ccc(Cl)cc1C(F)(F)F |
| 149 to 151 °C | CC(=O)OC1C(OC2=NN(Cc3ccccc3)C(=O)C3CC23)c2cc(C#N)ccc2OC1(C)C (stereo not given) |
| 96 to 100 °C | COc1ccc(N(N)c2nc(OCc3cccc(OC)c3)ncc2F)cc1 |

| SMILES | melting point |
| --- | --- |
| C1=C(c2c[nH]c3ccccc23)CCN(CC2COc3ccc4nocc4c3O2)C1 (stereo not given) | 110 °C |
| CC(C)NC(c1nccn1C)C1(c2ccc(Cl)c(Cl)c2)CCC1 (stereo not given) | 98 to 100 °C |
| Fc1ccc(-c2cc(N3CCNCC3)nnc2C(F)(F)F)cc1 | 137 °C |
| CCC(=O)N1N=C(c2ccc([N+](=O)[O-])cc2)c2cc(Br)ccc2CC1C (stereo not given) | 178 to 180 °C |
